Ends that are not written are not given here. d = 2'-deoxy (DNA)
T1: PPARγ2 (Homo sapiens, UniProt P37231)
T1 construct: expressed in transfected cells; host or cells: 293T
T1 sequence (P37231 1-505): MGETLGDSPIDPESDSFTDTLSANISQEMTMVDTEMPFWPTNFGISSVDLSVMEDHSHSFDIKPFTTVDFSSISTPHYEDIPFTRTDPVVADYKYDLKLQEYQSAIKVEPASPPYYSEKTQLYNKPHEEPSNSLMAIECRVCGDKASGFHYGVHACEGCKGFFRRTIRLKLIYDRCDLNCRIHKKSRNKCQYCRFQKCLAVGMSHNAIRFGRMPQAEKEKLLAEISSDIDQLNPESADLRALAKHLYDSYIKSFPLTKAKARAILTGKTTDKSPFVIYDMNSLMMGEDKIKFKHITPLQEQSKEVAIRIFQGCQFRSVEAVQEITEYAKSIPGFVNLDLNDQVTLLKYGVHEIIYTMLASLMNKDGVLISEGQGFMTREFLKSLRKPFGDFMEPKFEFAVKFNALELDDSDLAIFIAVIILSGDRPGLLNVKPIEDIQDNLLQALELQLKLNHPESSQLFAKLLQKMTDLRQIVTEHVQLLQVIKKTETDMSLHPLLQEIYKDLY

B1: C domains of sLZIP: C-terminal deletion mutant of sLZIP (229-354) (protein)
chain: MYSSDTRGSLPAEHGVLSRQLRALPSEDPYQLELPALQSEVPKDSTHQWLDGSDCVLQAPGNTSCLLHYMPQAPSAEPPLEWPFPDLFSEPLCRGPILPLQANLTRKGGWLPTGSPSVILQDRYSG
modifications: left off: a dimerising Fc or GST

What was measured:
PPARγ2 [1] = experiment: GST / His pull-down and immunoprecipitation of sLZIP with PPARγ2; assay type: binding; details: GST pull-down, transfected 293T cells
Method: 293T cells were obtained and washed with cold PBS. The cells were re-suspended in an IP lysis buffer [25 mM of Tris-HCl (pH 7.4), 150 mM of NaCl, 1 mM of EDTA, 1% NP-40 and 5% glycerol, and a protease inhibitor]. A suspension was centrifuged at 16,000×g for 20 minutes at 4° C. Supernatants were collected and incubated with 0.5 μg of appropriate antibodies and 25 μl of protein A/G-agarose or a GST Sepharose 4B bead for 24 hours at 4° C. A protein complex was centrifuged at 1,000×g with a cold IP lysis buffer for 1 minute and washed five times. The final pellet was re-suspended in 50 μl of an SDS-sample buffer containing 5% β-mercaptoethanol and heated for 10 minutes at 100° C. A protein sample was isolated in SDS-PAGE (8 to 10%) and transferred to nitrocellulose membranes. Co-precipitated proteins were detected according to western blotting using specific antibodies.
In order to examine whether the transcriptional activity of PPARγ2 is regulated by interaction with sLZIP, interaction between sLZIP and PPARγ2 was examined. For this purpose, 293T cells were transfected with GST-sLZIP and Myc-PPARγ2. Cell lysates were obtained and GST pull-down analysis was performed using a glutathione 4B bead. A protein complex was analyzed in SDS-PAGE and then immunoblotted with specific antibodies (FIG. 2A). The 293T cells were transfected with GST-PPARγ2 and Flag-sLZIP, and identified according to GST-pull-down analysis (FIG. 2B). PPARγ2 was translated in vitro by a TNT translation system (Promega). His-sLZIP proteins were expressed in BL21 cells using an IPTG-inducement system. Purified His-sLZIP proteins were subjected to His pull-down analysis. Proteins bound to the bead were analyzed in SDS-PAGE, and then immunoblotted with anti-PPARγ2 and anti-His antibodies (FIG. 2C). GFP-PPARγ2 and Flag-sLZIP constructs were expressed in C3H10T1/2 cells, and analyzed using mouse anti-Flag and Texas Red-labeled anti-mouse antibodies under a fluorescence microscope. The nucleus was stained with DAPI (FIG. 2D).
Activation of many nuclear receptors depends on a supplement of coactivators. Therefore, a domain of sLZIP necessary for binding with PPARγ2 was examined. For this purpose, 293T cells were transfected with GST-full length sLZIP (1-354), N-terminal deletion mutant sLZIP (1-228), C-terminal deletion mutant sLZIP (229-354), CC-terminal deletion mutant sLZIP (297-354) and PPARγ2. Cell lysates were obtained and GST pull-down analysis was performed using a glutathione 4B bead. A protein complex was analyzed in SDS-PAGE, and then immunoblotted with specific antibodies (FIG. 3A). 293T cells were transfected with Flag-full length PPARγ2, full length PPARγ2, N-terminal deletion mutant PPARγ2 (1-310), C-terminal deletion mutants PPARγ2 (139-505) and GST-sLZIP. Cell lysates were obtained and GST pull-down analysis was performed. A protein complex was analyzed in SDS-PAGE, and then immunoblotted with anti-GST and anti-Flag antibodies (FIG. 3B).
For this purpose, 293T cells were transfected with GST-PPARγ2 and Flag-sLZIP and were treated or not treated with 10 nM of RZD for 24 hours. Cell lysates were obtained and GST pull-down analysis (FIG. 5A) and immunoprecipitation (FIG. 5B) were performed using a glutathione 4B bead. A protein complex was analyzed in SDS-PAGE, and immunoblotted with anti-GST and anti-Flag antibodies. GST-PARγ2 and Flag-sLZIP were expressed in the 293T cells, and the cells were treated with 10 nM of RZD according to time of day. The cell lysates were GST pull-down analyzed (FIG. 5C). 293T cells were transfected with GST-HDAC3 and Flag-sLZIP, and treated or not treated with 10 nM of RZD for 24 hours. The cell lysates were GST pull-down analyzed (FIG. 5D). Flag-sLZIP was expressed in the 293T cells, and the cells were treated with 10 nM of RZD for 24 hours. Immunoprecipitation analysis of the cell lysates was performed using anti-NCoR1 antibodies. […]

PPARγ2 [2] = target: T1, PPARγ2; experiment: PPARγ2 transcriptional activity, FABP4-Luc luciferase reporter in transfected 293T cells; assay type: cell-based; details: for sLZIP-mediated PPARγ2 transcriptional activity: 100 nM si-RNA, with or without 10 nM RZD
Method: C3H10T1/2 and 293T cells were plated in a 12-well culture dish at a density of 2×10^5 cells/well and incubated for 24 hours. Then, according to instructions of the manufacturer, the cells were transfected with a 0.2 μg of reporter genes and 0.1 to 0.5 μg of a laboratory plasmid using Lipofectamine 2000 or Genefectine. After 24 hours, the cells were cultured in a serum-free DMEM with or without 10 nM of rosiglitazone. siRNAs were prepared using sLZIP and HDAC target sequences (Table 1). For an RNA interference experiment, according to instructions of the manufacturer, the cells were transfected with scrambled control group RNA and appropriate siRNAs using Lipofectamine 2000. Human MSC and C3H10T/1/2 cells were infected with an adenovirus vector containing cDNA of human sLZIP or an empty vector. The infected medium was exchanged with a fresh medium after two hours.
Appropriately transfected cells were washed with cold PBS twice, and a reporter lysis buffer (Promega) was used and lysed in a culture dish. Luciferase analysis was performed using a luciferase analysis system (Promega Corporation, Madison, Wis.). A luciferase activity was recorded in Luminometer 20/20^n (Turner BioSystems, Sunnyvale, Calif.) according to instructions of the manufacturer. The luciferase activity was normalized to a β-galactosidase activity. For β-galactosidase analysis, CMV-β-galactosidase was transfected with luciferase reporter genes. All pieces of data were represented as mean±standard deviation of the results from at least three independent experiments.
In order to examine an effect of sLZIP on the transcriptional activity of PPARγ2, 293T cells were temporarily transfected with PPARγ2 (0.5 μg), β-galactosidase (0.1 μg), FABP4-Luc reporter genes (0.2 μg) and sLZIP at different contents (0.1 to 0.5 μg). After the transfection, the cells were stimulated with or without 10 nM of rosiglitazone (RZD) (FIG. 1A), pioglitazone (PZD) (FIG. 1B), and troglitazone (TZD) (FIG. 1C). A relative luciferase activity was analyzed with or without cell ligand treatment 24 hours after transfection. Also, the 293T cells were transiently transfected with si-sLZIP at different contents (50 and 100 nM), and the cells were treated or not treated with RZD (FIG. 1D). FABP4-Luc stable C3H10T1/2 cells were infected with a sLZIP-expressing adenovirus, and then differentiated into adipocytes for 4 days (FIG. 1E). A luciferase activity was normalized to a β-galactosidase activity and represented as a relative activity (fold change). All experiments were repeated three times, and bars in the graph represent mean±standard deviation. *, P<0.05; **, P<0.01
For this purpose, 293T cells were transiently transfected with PPARγ2 (0.5 μg), β-galactosidase (0.1 μg), FABP4-Luc reporter genes (0.2 μg) and sLZIP (0.1 μg). After the transfection, the cells were stimulated with or without 10 nM of RZD and 10 nM of TSA (FIG. 4A). A promoter activity was measured according to luciferase analysis. In the 293T cells, FABP4-Luc reporter genes, sLZIP, PPAR, β-galactosidase, and 100 nM of si-RNAs and HDAC1, 2, 3 and 8 for a control group were expressed. After the transfection, the cells were stimulated with or without 10 nM of RZD, and a promoter activity was measured (FIG. 4B). 293T cells were temporarily transfected with FABP4-Luc reporter genes, PPARγ2, β-galactosidase, HDAC3 (0.5 μg) and sLZIP (0.1 μg). After the transfection, the cells were stimulated with or without 10 nM of RZD, and luciferase analysis was performed (FIG. 4C). A luciferase activity was normalized to a β-galactosidase activity and represented as a relative intensity (fold change). All experiments were repeated three times, and bars in the graph represent mean±standard deviation. GFP-sLZIP expression constructs were expressed in C3H10T1/2 cells, rabbit anti-HDAC3 antibodies and Texas Red-labeled anti-rabbit antibodies were used and analysis was performed under a fluorescence microscope. The nucleus was stained with DAPI (FIG. 4D). […]

Row | Molecule | sLZIP-mediated PPARγ2 transcriptional activity (PPARγ2 [2]) | further results
1 | CC domains of sLZIP: CC-terminal deletion mutant of sLZIP (297-354), contains proline-rich region (YMPQAPSAEPPLEWPFPDLFSEPLCRGPILPLQANLTRKGGWLPTGSPSVILQDRYSG; also: fused to dimerising Fc or GST) |  | interaction with PPARγ2 (PPARγ2 [1]): interacted with PPARγ2
2 | HDAC3: siRNA used to knock down HDAC3, SEQ ID NO: 11 and 12 (chain 1 GCCGGUUAUCAACCAGGUA; chain 2 UACCUGGUUGAUAACCGGC; 3' dTdT, sugars by position and backbone not given here) [reference compound] | significantly increased | 
3 | si-sLZIP: siRNA for sLZIP, SEQ ID NO: 5 and 6 (+dTdT) (chain 1 GGACCCAGAUGACUCCACAGCAUAU; chain 2 AUAUGCUGUGGAGUCAUCUGGGUCC; 3' dTdT, sugars by position and backbone not given here) [reference compound] |  | transcriptional activity of PPARγ2 (relative luciferase activity) (PPARγ2 [2]; si-sLZIP 50 and 100 nM, treated or not treated with RZD): increased the transcriptional activity of PPARγ2
4 | siRNA for HDAC1: siRNA against HDAC1, SEQ ID NO: 7 and 8 (chain 1 CGACUGUUUGAGAACCUUA; chain 2 UAAGGUUCUCAAACAGUCGCU; 3' dTdT, sugars by position and backbone not given here) [reference compound] | not involved in sLZIP-mediated PPARγ2 regulation | 
5 | siRNA for HDAC2: siRNA against HDAC2, SEQ ID NO: 9 and 10 (chain 1 GGUCAAUAAGACCAGAUAA; chain 2 UUAUCUGGUCUUAUUGACCG; 3' dTdT, sugars by position and backbone not given here) [reference compound] | not involved in sLZIP-mediated PPARγ2 regulation | 
6 | siRNA for HDAC8: siRNA against HDAC8, SEQ ID NO: 13 and 14 (chain 1 CAUUCAGGAUGGCAUACAA; chain 2 UUGUAUGCCAUCCUGAAUGGG; 3' dTdT, sugars by position and backbone not given here) [reference compound] | not involved in sLZIP-mediated PPARγ2 regulation | 
7 | B1 |  | interaction with PPARγ2 (PPARγ2 [1]): interacted with PPARγ2
